These results are taken from patent publication US11027027B2, “Pyridazinoindole compounds and methods for PET imaging” (Vanderbilt University, priority 2015, dated 2021).

Structures are written as SMILES. Where two headings read alike, the source gives them in different places.

Series [1] addresses T1, TSPO (Rattus norvegicus, UniProt P16257). Further details: frozen and thawed three times in lysis buffer; endogenous in cells; host or cells: C6 rat glioma cells. Conditions: cited from earlier work.
For series [2], the target named is T1, TSPO. Description: TSPO radiometric binding assay, kidney lysate, displacement of [3H]PK11195. On the procedure: (§1) Affinities are expressed as Ki±S.E.M. (pM) in Table 1. All experiments were performed in triplicate.
(§2) Male Wistar rats were sacrificed and the heart and kidney collected and dissected. The tissues were homogenized in 20 volumes of ice-cold PBS buffer (pH 7.4) with a Brinkmann microhomogenizer (Kinematica AG, Luzern, SW). The homogenate was collected at a protein concentration of 5.0 mg/mL and stored at −80° C. C6 cells were collected and washed with PBS buffer three times, and then frozen and thawed three times in lysis buffer (5.0 mM HEPES, 0.21 M D-mannitol, 0.07 M sucrose, 2.0 mM benzamidine, 2.0 mM toluenesulfonyl fluoride, 4.0 mM MgCl2, pH 7.4) to produce C6 cell lysate (0.5 mg/mL). […] The reaction was terminated by rapid filtration through a Brandel harvester (Gaithersburg, Md., USA) and collection onto a filter presoaked with 0.3% polyethyleneimine. Filters were then punched out into scintillation vials and bound radioactivity measured on a Beckman LS 6000 Scintillation Counter (Brea, Calif., USA). […] All experiments were performed in triplicate.
A general note: Loss of bound radioactivity is the signal in a displacement assay; it reports binding, not function.

Series [3] deals with T1, TSPO. The experiment in a line: TSPO radiometric binding assay, heart lysate, displacement of [3H]PK11195. How it is done:
as §1, §2

Series [4] deals with T1, TSPO. The experiment in a line: TSPO radiometric binding assay, C6 glioma cell lysate, displacement of [3H]PK11195. Also noted: frozen and thawed three times in lysis buffer; endogenous in cells; host or cells: C6 rat glioma cells. On the procedure: as §1, §2
Series [5] has as its target central benzodiazepine receptor (CBR). Description: CBR binding assay, displacement of [3H]flunitrazepam in rat brain (cerebral cortex) lysate. Conditions: rat brain lysate / cerebral cortex membranes; selectivity for TSPO over CBR; read-out: Ki versus [3H]flunitrazepam. How it is done:
as §1
The homogenate was collected at a protein concentration of 5.0 mg/mL and stored at −80° C. […] All experiments were performed in triplicate.

Series [6] has as its target T1, TSPO. Description: Binding affinity to TSPO of fluorescent probes. An excerpt:
Binding affinity to TSPO of fluorescent probes 23-29.

Series [7] has as its target PBR (Homo sapiens, UniProt P30536). Conditions: cited from earlier work.
Series [8] deals with T1, TSPO. Description: In vivo PET displacement study with non-radioactive 14 in C6-bearing rats. Also noted: frozen and thawed three times in lysis buffer; endogenous in cells; host or cells: C6 rat glioma cells. How it is done: Specific Binding of [^18F]-14 in Rats. To evaluate the in vivo TSPO specificity of [^18F]-14, the present inventors performed displacement studies in C6-bearing rats using the non-radioactive analog (14). As shown in the TAC in FIG. 1H, during the dynamic PET study, a bolus (IV) infusion of nonradioactive 14 (10 mg/kg) was administered approximately 30 minutes after injection of [^18F]-14. […] During tumor displacement, the present inventors observed a minor influx of tracer into normal brain (green). The displaced [^18F]-14 then rapidly cleared the normal brain and entered the plasma, subsequently elevating plasma (red) radioactivity.
PET/CT was performed within 24 hours of MRI in rats with confirmed tumors. Tumor-bearing rats were administered [^18F]-14 via jugular catheter while in a microPET Focus 220 scanner (Siemens, Munich, Del.). Data were collected in list-mode format for 90 minutes, followed by a CT scan (microCAT II; Siemens) for attenuation correction.
The dynamic PET acquisition was divided into twelve 10-s frames for the first two minutes, three 60-second frames for the following three minutes, and seventeen 300-second frames for the duration of the scan. The raw data within each frame were then binned into three-dimensional sinograms, with a span of three and ring difference of 47. […]

Series [9] relates to C6 glioma. The experiment in a line: Dynamic microPET imaging of tracer uptake in C6 glioma-bearing rats. The format is in vivo, rat. On the procedure: (§3) Uptake Characteristics of [^18F]-14 in C6 Glioma. The in vivo performance of [^18F]-14 was evaluated in glioma-bearing (C6), male Wistar rats using microPET imaging, with a typical study shown in FIG. 1. MRI (T2-weighted) was used to localize tumors and for registration of anatomical features with PET (FIG. 1A).^11,12,18 Dynamic PET imaging with [^18F]-14 illustrated that the majority of tracer accumulation in the brain was localized to the tumor, with modest accumulation that exceeded plasma in contralateral, non-tumor brain (FIGS. 1B & 1C). The tumor-selective characteristics of [^18F]-14 afforded excellent imaging contrast between tumor and contralateral tissue. FIG. 1G illustrates time—activity curves (TACs) typical of representative studies for tumor (blue), normal brain (green), and plasma (red) over a 90-min dynamic acquisition.
All studies involving animals were conducted in compliance with federal and institutional guidelines. Two weeks before imaging, healthy male Wistar rats were stereotactically inculcated in the right hemisphere with 1.0×10^5 C6 glioma cells (American Type Tissue Collection). Prior to imaging, all rats were affixed with venous and arterial catheters.
PET/CT was performed within 24 hours of MRI in rats with confirmed tumors. Tumor-bearing rats were administered [^18F]-14 via jugular catheter while in a microPET Focus 220 scanner (Siemens, Munich, Del.). […]

The nature of series [10]: Radio-TLC radiometabolite analysis of plasma. The format is in vivo, rat. Conditions: plasma samples, n=2, preliminary. On the procedure:
as §3
Arterial blood (500 μL) was collected at 2, 12, 30, and 60 minutes following injection of 1.5 mCi of [^18F]-14. After centrifugation, the plasma was extracted with acetonitrile/water (50 μL, 7/1, v/v). The mixture was then centrifuged and the supernatant used for TLC analysis in 10% dichloromethane in methanol. Radiochromatographic data were recorded and collected using a radioisotope detector (Bioscan, Washington, D.C., USA).

Where [11] appears, read: versus [3H]PK11195, C6 lysate, low-affinity component, read-out: C6 Glioma Ki, low-affinity binding (mixed affinity binding).
Where [12] appears, read: Ki ± S.E.M. versus [3H]PK11195, C6 lysate, high-affinity value where binding is mixed, triplicate, read-out: C6 Glioma Ki.
Setting [13] is: Ki ± S.E.M. versus [3H]PK11195, rat heart lysate, triplicate.

PBR, sequence (P30536 whole entry, species assumed, the tested form may be a part): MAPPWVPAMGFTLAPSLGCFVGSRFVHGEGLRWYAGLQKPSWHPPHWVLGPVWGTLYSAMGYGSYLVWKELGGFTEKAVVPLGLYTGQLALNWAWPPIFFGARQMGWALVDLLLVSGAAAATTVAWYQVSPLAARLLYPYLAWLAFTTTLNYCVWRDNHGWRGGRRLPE

In the case of `COc1ccc(OC)c(CN(C(=O)CF)c2ccccc2Oc2ccccc2)c1` [Compound 1, reference compound], in series [1] (read-out: Ki for TSPO in C6 glioma (reported), literature values), the Ki was 6.17 nM. Take `CN(C)C(=O)Cc1nn(-c2ccccc2F)c(=O)c2c1c1ccc(Cl)cc1n2C` [Compound 9, 2-(7-Chloro-3-(2-fluorophenyl)-5-methyl-4-oxo-4,5-dihydro-3H-pyridazino[4,5-b]indol-1-yl)-N,N-dimethylacetamide]: the Ki in series [2] (read-out: Kidney Ki) came out at 0.00118 ± 4e-05 nM.

The compound `CN(C)C(=O)Cc1nn(-c2cccc([N+](=O)[O-])c2)c(=O)c2c1c1ccc(Cl)cc1n2C` [Compound 11, 2-(7-Chloro-5-methyl-3-(3-nitrophenyl)-4-oxo-4,5-dihydro-3H-pyridazino[4,5-b]indol-1-yl)-N,N-dimethylacetamide] returned an inhibitory constant (Ki) in [3] of 0.00118 ± 9e-05 nM. In the case of `CN(C)C(=O)Cc1nn(-c2ccc(F)cc2)c(=O)c2c1c1ccc(Cl)cc1n2C` [Compound 12, 2-(7-Chloro-3-(4-fluorophenyl)-5-methyl-4-oxo-4,5-dihydro-3H-pyridazino[4,5-b]indol-1-yl)-N,N-dimethylacetamide], the Ki in series [2] (read-out: Kidney Ki, low-affinity binding (mixed affinity binding)) came out at 0.969 nM; in series [4] (setting [11]) it was 3.02 ± 1.01 nM.

Consider `CN(C)C(=O)Cc1nn(-c2ccccn2)c(=O)c2c1c1ccc(Cl)cc1n2C` [Compound 13, 2-(7-Chloro-5-methyl-4-oxo-3-(pyridin-2-yl)-4,5-dihydro-3H-pyridazino[4,5-b]indol-1-yl)-N,N-dimethylacetamide], for which the “Kidney Ki” value in [2] (Ki ± S.E.M. versus [3H]PK11195, rat kidney lysate, high-affinity value where binding is mixed, triplicate) is listed as “did not appreciably bind TSPO”. In addition, the Ki in series [2] (read-out: Kidney Ki) was determined as 6.8 nM; in series [4] (setting [12]) it was 2.41 nM; in [3] it was 4.94 nM. The “C6 Glioma Ki” value in series [4] (Ki ± S.E.M. versus [3H]PK11195, C6 lysate, high-affinity value where binding is mixed, triplicate) is recorded as “did not appreciably bind TSPO”. Also, in series [3] (setting [13]), the “Heart Ki” value is on record as “did not appreciably bind TSPO”. As for `CN(C)C(=O)Cc1nn(-c2cccc(F)n2)c(=O)c2c1c1ccc(Cl)cc1n2C` [Compound 14, 2-(7-Chloro-3-(6-fluoropyridin-2-yl)-5-methyl-4-oxo-4,5-dihydro-3H-pyridazino[4,5-b]indol-1-yl)-N,N-dimethylacetamide], the Ki in series [2] (Ki ± S.E.M. versus [3H]PK11195, rat kidney lysate, high-affinity value where binding is mixed, triplicate, read-out: Kidney Ki) is 0.00221 ± 0.0004 nM; in series [5], > 10000 nM; in [4] (setting [12]), 0.00119 nM; in series [4] (setting [11]), 1.77 nM; in series [3] (setting [13]), 0.00321 ± 0.0004 nM. Also, the “increase in potency over 2b” value in series [4] (TSPO, in our lab) came out at 1000 fold. Regarding `CN(C)C(=O)Cc1nn(-c2cccc(Cl)n2)c(=O)c2c1c1ccc(Cl)cc1n2C` [Compound 15, 2-(7-Chloro-3-(6-chloropyridin-2-yl)-5-methyl-4-oxo-4,5-dihydro-3H-pyridazino[4,5-b]indol-1-yl)-N,N-dimethylacetamide], the Ki in series [4] (setting [12]) was 0.00234 ± 0.0004 nM. On the same count and under the same terms, as for `CN(C)C(=O)Cc1nn(-c2cccc(Br)n2)c(=O)c2c1c1ccc(Cl)cc1n2C` [Compound 16, 2-(7-Chloro-3-(6-bromopyridin-2-yl)-5-methyl-4-oxo-4,5-dihydro-3H-pyridazino[4,5-b]indol-1-yl)-N,N-dimethylacetamide], the figure is 0.00148 ± 0.0002 nM. Turning to `CCc1cc(CC)n2nc(-c3ccc(OCCNC(=S)Nc4ccc5c(c4)C(=O)OC54c5ccc(O)cc5Oc5cc(O)ccc54)cc3)c(CC(=O)N(CC)CC)c2n1` [Compound 23], the affinity in series [6], expressed as Ki, was 13.8 ± 4.99 nM. On the same count and under the same terms, as for `CCc1cc(CC)n2nc(-c3ccc(OCCCNC(=S)Nc4ccc5c(c4)C(=O)OC54c5ccc(O)cc5Oc5cc(O)ccc54)cc3)c(CC(=O)N(CC)CC)c2n1` [Compound 24], the figure is 111 ± 25.6 nM; as for `CCc1cc(CC)n2nc(-c3ccc(OCCCCCNC(=S)Nc4ccc5c(c4)C(=O)OC54c5ccc(O)cc5Oc5cc(O)ccc54)cc3)c(CC(=O)N(CC)CC)c2n1` [Compound 26], 185 ± 15.4 nM. The same measure, in the same setting: the figure for `CCc1cc(CC)n2nc(-c3ccc(OCCCCCCNC(=S)Nc4ccc5c(c4)C(=O)OC54c5ccc(O)cc5Oc5cc(O)ccc54)cc3)c(CC(=O)N(CC)CC)c2n1` [Compound 27] is 11.7 ± 4.86 nM; for `CCc1cc(CC)n2nc(-c3ccc(OCCCCCCCNC(=S)Nc4ccc5c(c4)C(=O)OC54c5ccc(O)cc5Oc5cc(O)ccc54)cc3)c(CC(=O)N(CC)CC)c2n1` [Compound 28] it is 16.3 ± 5.01 nM; for `CCc1cc(CC)n2nc(-c3ccc(OCCCCCCCCNC(=S)Nc4ccc5c(c4)C(=O)OC54c5ccc(O)cc5Oc5cc(O)ccc54)cc3)c(CC(=O)N(CC)CC)c2n1` [Compound 29] it is 0.31 ± 0.02 nM. Regarding `COc1ccc(OC)c(CN(C(C)=O)c2cc(F)ccc2Oc2ccccc2)c1` [DAA1106], the “binding affinity for PBR” value in series [7] is “fentomolar”. Take `CCc1cc(CC)n2nc(-c3ccc(OCC[18F])cc3)c(CC(=O)N(CC)CC)c2n1` [[^18F]-2b, 2-(5,7-diethyl-2-(4-(2-[^18F]fluoroethoxy)phenyl)pyrazolo[1,5-a]pyrimidin-3-yl)-N,N-diethylacetamide]: the “enhancement in affinity compared to [18F]-2a” value in series [1] (TSPO) is given as 36 fold. Turning to `CN(C)C(=O)Cc1nn(-c2cccc([18F])n2)c(=O)c2c1c1ccc(Cl)cc1n2C` [[^18F]-14, 7-chloro-N,N,5-trimethyl-4-oxo-3(6-[^18F]fluoropyridin-2-yl)-3,5-dihydro-4H-pyridazino[4,5-b]indole-1-acetamide], the “tumor binding after injection of 14, % of the peak tumor uptake” value in series [8] (bolus IV nonradioactive 14 (10 mg/kg) about 30 min after tracer) was “approximately 40%”. Besides, in [8] (non-radioactive 14 given halfway through the PET scan), the “displaceability by non-radioactive 14” value is on record as “fully displaceable”. Besides, in [9] (preclinical model of glioma (C6), PET), the “tracer accumulation in normal brain and tumor” value was “modest accumulation in normal brain, yet robust accumulation in tumor tissue”. The “plasma clearance of tracer” value in series [9] (time-activity curve, 90-min dynamic acquisition) is listed as “quickly cleared the plasma”. In series [10], the “% parent at 60 min” value is > 90%.

For orientation: Ki means a dissociation constant, usually derived from enzyme kinetics or from competition with a known ligand.
